The values that follow come from US10206877B2, “Pharmaceutical compositions for the treatment of cystic fibrosis transmembrane conductance regulator mediated diseases” (Vertex Pharmaceuticals Incorporated, priority 2014, dated 2019).

Data set [1] is described as follows: Compound 1 crystallization kinetics at elevated temperature and 75% relative humidity. Format: physicochemical. The settings on record: for Crystallization / stability towards crystallization: 75% relative humidity; for Compound 1 crystallized: at about 25 hours; for stability towards crystallization: 80° C. and 70° C. (FIGS. 12, 13). On the procedure:
FIG. 12 is a plot of crystallization kinetics data for Compound 1 at 80° C. and 75% relative humidity when in a Compound 2 free tablet (circles), a spray dried dispersion (squares), and a tablet comprising Compound 2 (triangles).
FIG. 13 is a plot of crystallization kinetics data for Compound 1 at 70° C. and 75% relative humidity when in a Compound 2 free tablet (circles), a spray dried dispersion (squares), and a tablet comprising Compound 2 (triangles).
FIGS. 12 and 13 depict the Compound 1 crystallization kinetics under 75% relative humidity and 80° C. and 70° C., respectively. Triangles represent a tablet formulation of a blend of the two separate spray dried dispersions of Compound 1 and Compound 2. Circles represent the same tablet formulation just lacking Compound 2. Squares represent the separate spray dried dispersion of Compound 1.
The phenomena of one therapeutic agent having improved properties in the presence of another therapeutic agent is not limited to the neat co-spray dried dispersions substantially free of polymer previously described. […] Table 2 lists the % crystallization of an 80% by weight SDD of Compound 1 over time at 80° C. at 75% relative humidity in the absence of Compound 2. Table 3 lists the % crystallization of Compound 1 in the presence of Compound 2 in a tablet of the present invention comprising a blend of Compound 1 SDD and Compound 2 SDD at […] at 75% relative humidity.

A short description of data set [2]: Kinetic dissolution / fluid stability in fed state simulated intestinal fluid (FedSIF). Type of data set: physicochemical. The source says:
FIG. 9 is a bar graph of kinetic dissolution data for Compound 1 in fed state simulated intestinal fluid (FedSIF) solutions in the presence of Compound 2 in a neat coSDD substantially free of polymer and alone as measured by concentration versus time.
FIG. 10 is a bar graph of kinetic dissolution data for Compound 2 in FedSIF solutions in the presence of Compound 1 in a neat coSDD substantially free of polymer and alone as measured by concentration versus time.
The present invention features compositions where properties such as physical stability and dissolution rates are improved when one therapeutic agent is in the presence of another. […] FIG. 9 depicts fluid stability of Compound 1 in fed state simulated intestinal fluid (FedSIF). The set of bars labeled Neat 1:1 coSDD is the neat coSDD of Compound 1 and Compound 2 substantially free of polymer featured in the present invention. Along the y axis is concentration of Compound 1 in mg/ml and each bar along the x axis represents time: 0.5 h, 1 h, 3 h, 5 h, 29 h, and 72 h.
FIG. 10 depicts fluid stability of Compound 2 in compositions of the present invention in FedSIF. The set of bars labeled Neat 1:1 coSDD is the neat coSDD of Compound 1 and Compound 2 substantially free of polymer featured in the present invention.

Data set [3] is described as follows: Dog pK of tablets (Compound 2 exposure). Format: in vivo. The source says: FIG. 11 depicts the results of dissolution rate experiments for a tablet comprising the neat co-spray dried dispersion of Compound 1 and Compound 2 (circles) and a tablet comprising a spray dried dispersion of Compound 2 alone and polymer (triangles). […] When Compound 2 is in the presence of Compound 1, the maximum concentration and area under the curve increases by 73% and 47%, respectively, relative to Compound 2 alone.

Data set [4] can be described thus: Dissolution rate experiments in fasted simulated fluids. Type of data set: physicochemical. The settings on record: tablet of neat co-spray dried dispersion of Compound 1 and Compound 2 vs tablet of SDD of Compound 2 alone and polymer; fasted simulated fluids (FIG. 11). From the text:
FIG. 11 is a plot of dissolution data for Compound 2 in fasted simulated fluids alone and in the presence of Compound 1 in a neat coSDD substantially free of polymer. […] FIG. 11 depicts the results of dissolution rate experiments for a tablet comprising the neat co-spray dried dispersion of Compound 1 and Compound 2 (circles) and a tablet comprising a spray dried dispersion of Compound 2 alone and polymer (triangles).

[5] abbreviates: dog pK, ratio Neat coSDD tablet / Individual Tablets (Compound 2 alone).
[6] abbreviates: dog, Compound 2 in the presence of Compound 1 relative to Compound 2 alone.

On to `CC(C)(CO)c1cc2cc(NC(=O)C3(c4ccc5c(c4)OC(F)(F)O5)CC3)c(F)cc2n1C[C@@H](O)CO` [Compound 1, (R)-1-(2,2-difluorobenzo[d][1,3]dioxol-5-yl)-N-(1-(2,3-dihydroxypropyl)-6-fluoro-2-(1-hydroxy-2-methylpropan-2-yl)-1H-indol-5-yl)cyclopropanecarboxamide], for which the Crystallization in data set [1] (80% by weight SDD of Compound 1, absence of Compound 2, 80° C., 0 Hrs.) is given as 0%; in data set [1] (80% by weight SDD of Compound 1, absence of Compound 2, 80° C., 5.2 Hrs.), 0%; in data set [1] (80% by weight SDD of Compound 1, absence of Compound 2, 80° C., 6 Hrs.) it was 0%; in data set [1] (80% by weight SDD of Compound 1, absence of Compound 2, 80° C., 9 Hrs.), 0.7%; in data set [1] (80% by weight SDD of Compound 1, absence of Compound 2, 80° C., 14.7 Hrs.) it was 5%; in data set [1] (80% by weight SDD of Compound 1, absence of Compound 2, 80° C., 25 Hrs.), 46.4%. Further, the Crystallization is 88% in data set [1] (80% by weight SDD of Compound 1, absence of Compound 2, 80° C., 168 Hrs.); 0% in data set [1] (tablet comprising a blend of Compound 1 SDD and Compound 2 SDD, 80 CC, 0 Hrs.); 3% in data set [1] (tablet comprising a blend of Compound 1 SDD and Compound 2 SDD, 80 CC, 7 Hrs.); 6% in data set [1] (tablet comprising a blend of Compound 1 SDD and Compound 2 SDD, 80 CC, 14 Hrs.); 8% in data set [1] (tablet comprising a blend of Compound 1 SDD and Compound 2 SDD, 80 CC, 21 Hrs.); 10% in data set [1] (tablet comprising a blend of Compound 1 SDD and Compound 2 SDD, 80 CC, 26 Hrs.). The “Compound 1 crystallized” value in data set [1] (in the absence of Compound 2) was determined as 46%; in data set [1] (when Compound 2 was present), 10%. Moreover, the stability towards crystallization result in data set [1] (tablet blend of the two separate SDDs vs Compound 2 free tablet) is listed as “significantly more stable towards crystallization”; in data set [1] (tablet formulation with Compound 2 vs separate spray dried dispersion of Compound 1), “also more stable”. The “concentration stability of Compound 1 in FedSIF” value is listed as “concentration stability is greater” in data set [2] (1:1 coSDD (20% HPMCAS) vs Compound 1 SDD (50% HPMCAS), over 72 h (FIG. 9)) and “more consistent” in data set [2] (2:1 coSDD (20% HPMCAS) vs Compound 1 SDD (50% HPMCAS), over 72 h (FIG. 9)). In data set [2] (Neat 1:1 coSDD (no polymer) vs Compound 1 SDD (50% HPMCAS), over 72 h (FIG. 9)), the “stability of Compound 1 concentration in FedSIF” value is “greater and more consistent stability”.

Take `CC(C)(C)c1cc(C(C)(C)C)c(NC(=O)c2c[nH]c3ccccc3c2=O)cc1O` [Compound 2, N-[2,4-bis(1,1-dimethylethyl)-5-hydroxyphenyl]-1,4-dihydro-4-oxoquinoline-3-carboxamide]: in data set [3] (setting [5]), the “AUC wt norm, Geometric Mean Ratio” value turned out to be 146.73 and the “Cmax wt norm, Geometric Mean Ratio” value turned out to be 172.93. Further, in data set [3] (setting [6]), the “increase of area under the curve” value turned out to be 47% and the “increase of maximum concentration” value came out at 73%. In addition, the exposure in vivo result in data set [3] (dog, tablet of neat coSDD relative to tablet of Compound 2 alone) was “statistically significant increases in exposure”. Also, in data set [4], the “dissolution rate of Compound 2” value was “significant increase in dissolution rates”. In data set [2] (1:1 coSDD (20% HPMCAS) vs Compound 2 SDD (20% HPMCAS), over 72 h (FIG. 10)), the “concentration stability of Compound 2 in FedSIF” value is on record as “concentration stability is greater”. Besides, the “concentration stability of Compound 2 in FedSIF” value in data set [2] (2:1 coSDD (20% HPMCAS) vs Compound 2 SDD (20% HPMCAS), over 72 h (FIG. 10)) is “more consistent”. For the same compound, the “stability of Compound 2 concentration in FedSIF” value in data set [2] (Neat 1:1 coSDD (no polymer) vs Compound 2 SDD (20% HPMCAS), over 72 h (FIG. 10)) is recorded as “increased stability”.
